These results are taken from patent US8993565B2, “(6-oxo-1,6-dihydropyrimidin-2-yl)amide derivatives, preparation thereof and pharmaceutical use thereof as AKT(PKB) phosphorylation inhibitors” (Sanofi, priority 2009, dated 2015).

The structures appear in SMILES notation. pIC50: −log10 of the molar value.

This assay has as its system AKT protein phosphorylated on serine 473 (P-AKT-S473). The assay can be described thus: Study of pAKT expression in PC3 human prostate carcinoma cells measured by the MSD Multi-spot Biomarker Detection technique (Test B). Type of assay: cell-based. The note with it: PC-3, inhibition of AKT phosphorylation (P-AKT-S473), MSD sandwich immunoassay, 1 to 2 h incubation, absolute IC50, mean of 2 experiments. The procedure:
The inhibitory activity of the molecules on AKT phosphorylation is measured either by western blotting using the technique described below, or by the MSD Multi-spot Biomarker detection technique from Meso Scale Discovery also described below.
Study of pAKT Expression in PC3 Human Prostate Carcinoma Cells Measured by the MSD Multi-Spot Biomarker Detection Technique from Meso Scale Discovery (Test B):
The primary antibody specific for P-AKT-S473 (Kit #K151CAD) is coated on to an electrode in each well of the 96-well plates of the MSD, kit: after the addition of a protein lysate to each well, the signal is visualised by adding a secondary detection antibody labelled with an electrochemoluminescent compound. The procedure followed is that described in the kit.
On day 2, the cells are incubated in the presence or absence of the test products for 1 to 2 h at 37° C. in the presence of 5% of CO2. The molecules, diluted in dimethyl sulphoxide (DMSO Sigma #D2650), are added from a 20-times concentrated stock solution, the final percentage of DMSO being 0.1%. The molecules are tested either at a single concentration of less than or equal to 10 μM, or at increasing concentrations in a range that can extend from less than 1 nM to 10 μM.
After this incubation, the cells are lysed for the preparation of the proteins. […] At this stage, the plates containing the lysates can be stored at −20° C. or at −80° C.
The wells of the 96-well plates of the MSD kit are saturated for 1 h at ambient temperature with the blocking solution of the MSD kit. Four washes are carried out with 150 μl of Tris Wash Buffer of the MSD kit. The lysates previously prepared are transferred into the 96-well multi-spot plates of the MSD kit and incubated for 1 h at ambient temperature, with shaking. Four washes are carried out with 150 μl of Tris Wash Buffer of the MSD kit. 25 μl of the MSD sulfo-tag detection antibody solution are added to the wells and incubated for 1 h at ambient temperature, with shaking. Four washes are carried out with 150 μl of Tris Wash Buffer of the MSD kit. 150 μl of Read Buffer of the MSD kit are added to the wells and the plates are read immediately on the S12400 instrument from Meso Scale Discovery.
The instrument measures a signal for each well. Wells without cells and containing the lysis buffer serve to determine the background noise that will be subtracted from all the measurements (min). The wells containing cells in the absence of product and in the presence of 0.1% DMSO are considered to be the 100% signal (max). The percentage inhibition is calculated for each concentration of test product according to the following formula: (1-((test-min)(max-min)))×100.
2 independent experiments make it possible to calculate the mean of the IC50 values.
Broadly, the pIC50 is the IC50 on a negative log10 scale, so that one unit is a factor of ten. Take `C[C@@H]1Cc2ccccc2N1C(=O)Cc1nc(N2CCOCC2)cc(=O)[nH]1` [Example 118, 2-{2-[(2R)-2-methyl-2,3-dihydro-1H-indol-1-yl]-2-oxoethyl}-6-(morpholin-4-yl)pyrimidin-4(3H)-one]: the pIC50 is 7.92.

For `NC(=O)C1Cc2ccccc2N1C(=O)Cc1nc(N2CCOCC2)cc(=O)[nH]1` (centres unmarked) [Example 122, 1-{[4-(morpholin-4-yl)-6-oxo-1,6-dihydropyrimidin-2-yl]acetyl}-2,3-dihydro-1H-indole-2-carboxamide], the pIC50 was 6.30.

The compound `C[C@@H]1CN(C(=O)Cc2nc(N3CCOCC3)cc(=O)[nH]2)c2ccccc21` [Example 125, 2-{2-[(3S)-3-methyl-2,3-dihydro-1H-indol-1-yl]-2-oxoethyl}-6-(morpholin-4-yl)pyrimidin-4(3 H)-one] gave a pIC50 of 7.80.

Consider `C[C@H]1CN(C(=O)Cc2nc(N3CCOCC3)cc(=O)[nH]2)c2ccccc21` [Example 126, 2-{2-[(3R)-3-methyl-2,3-di hydro-1H-indol-1-yl]-2-oxoethyl}-6-(morpholin-4-yl)pyrimidin-4(3H)-one], for which the pIC50 is 7.24.

Consider `Cn1c(CC(=O)N2CCc3c2ccc(F)c3F)nc(N2CCOCC2)cc1=O` [Example 128, 2-[2-(4,5-difluoro-2,3-dihydro-1H-indol-1-yl)-2-oxoethyl]-3-methyl-6-(morpholin-4-yl)pyrimidin-4(3H)-one], for which the pIC50 was 7.16.

Consider `O=C(Cc1nc(N2CCOCC2)cc(=O)[nH]1)N1Cc2ccccc2C1` [Example 129, 2-[2-(1,3-dihydro-2H-isoindol-2-yl)-2-oxoethyl]-6-(morpholin-4-yl)pyrimidin-4(3H)-one], for which the pIC50 is 6.00.

In turn, `O=C(Cc1nc(N2CCOCC2)cc(=O)[nH]1)Nc1ccc(F)cc1OCC1CCNCC1` [Example 133, N-[4-fluoro-2-(piperidin-4-ylmethoxy)phenyl]-2-[4-(morpholin-4-yl)-6-oxo-1,6-dihydropyrimidin-2-yl]acetamide] showed a pIC50 of 6.76.

Compound `O=C(Cc1nc(N2CCOCC2)cc(=O)[nH]1)N1CCc2cc(Cl)ccc21` [Example 134, 2-[2-(5-Chloro-2,3-dihydroindol-1-yl)-2-oxoethyl]-6-morpholin-4-yl-3H-pyrimidin-4-one] had a pIC50 of 6.91.

Take `O=C(Cc1nc(N2CCOCC2)cc(=O)[nH]1)N1CCc2c(Br)cccc21` [Example 135, 2-[2-(4-Bromo-2,3-dihydroindol-1-yl)-2-oxoethyl]-6-morpholin-4-yl-3H-pyrimidin-4-one]: the pIC50 was 9.00.

Compound `CN(C)C[C@@H]1CN(C(=O)Cc2nc(N3CCOCC3)cc(=O)[nH]2)c2ccccc21` [Example 137, 2-(2-{(3R)-3-[(dimethylamino)methyl]-2,3-dihydro-1H-indol-1-yl}-2-oxoethyl)-6-(morpholin-4-yl)pyrimidin-4(3H)-one] showed a negative logarithm of the IC50 (pIC50) of 7.17.

As to `COCCOc1cc(F)ccc1NC(=O)Cc1nc(N2CCOCC2)cc(=O)[nH]1` [Example 138, N-[4-fluoro-2-(2-methoxyethoxy)phenyl]-2-[4-(morpholin-4-yl)-6-oxo-1,6-dihydropyrimidin-2-yl]acetamide], the pIC50 is 7.46.

On to `O=C(Cc1nc(N2CCOCC2)cc(=O)[nH]1)Nc1cccc2[nH]cnc12` [Example 139, N-(1H-benzimidazol-4-yl)-2-[4-(morpholin-4-yl)-6-oxo-1,6-dihydropyrimidin-2-yl]acetamide], for which the negative logarithm of the IC50 (pIC50) is 5.52.

Take `COC(=O)c1cccc(NC(=O)Cc2nc(N3CCOCC3)cc(=O)[nH]2)c1O` [Example 140, methyl 2-hydroxy-3-(([4-(morpholin-4-yl)-6-oxo-1,6-dihydropyrimidin-2-yl]acetyl)amino)benzoate]: the pIC50 is 6.52.

On to `COc1cccc2c1CCN2C(=O)Cc1nc(N2CCOCC2)cc(=O)[nH]1` [Example 141, 2-[2-(4-Methoxy-2,3-dihydroindol-1-yl)-2-oxoethyl]-6-morpholin-4-yl-3H-pyrimidin-4-one], for which the pIC50 is 7.22.
